Results from patent US12163955B2, “Antibodies to methotrexate and uses thereof” (Ark Diagnostics, Inc., priority 2023, dated 2024).
Values belong to the molecule of their own block, whether it stands above or below them.

What was measured:
MTX antibodies [1] = test: Specificity in absence of MTX, cross-reactivity (MTX Assay); type: binding, rabbit; conditions: Trimethoprim 150 μmol/L, Triamterene 25 μmol/L; for % Cross-reactivity: no MTX
[2] = cited from earlier work
[3] = MTX Assay calibration curve (homogeneous enzyme immunoassay, Beckman AU680); type: biochemical
Experimental: The top clones (281H3/28K1, 321H1/32K2 and 64H1/64K1) were selected based on performance for larger scale production and purification (Table 5). These clones were then used for further studies. To make the initial antibody reagent, both clones were diluted to 100 μg/mL with antibody diluent. Then a 1:4 ratio mixture of […] to Clone 64H1/64K1 was made and spiked into antibody diluent. […]
The MTX Assay calibration range is from 0.00 to 1.30 μM. Calibration curves were generated on the Beckman AU680 by assaying each calibrator level in quadruplicate. The Beckman AU680 analyzer performs the nonlinear data analysis automatically using multi-parameter curve-fit math model. Typical calibrator separations are shown for the MTX Assay in Table 6. […] The calculation for feasibility lot percent modulation is shown below: • Max Rate=640.3 mA/min. • Negative Calibrator Rate=358.5 mA/min. • High Calibrator Rate (1.30 μM)=608.7 mA/min. • Total Curve ΔmA=High Cal. Rate−Negative Cal.

MTX antibodies [4] = test: Specificity in absence of MTX, cross-reactivity (MTX Assay); type: binding, rabbit; conditions: no MTX
From the text: “Cross-reactivity” refers to the reaction of an antibody with an antigen that was not used to induce that antibody. “Cross-reactivity” may be determined in a quantitative immunoassay by establishing a standard curve using known dilutions of the target analyte. The standard curve is then used to calculate the apparent concentration of the interfering substance present in various known amounts in samples assayed under similar condition. The cross-reactivity is the apparent concentration divided by the actual concentration multiplied by 100.
[…] Solvent controls were also prepared and tested.
Cross-reactivity with DAMPA was also tested DAMPA stock solution was spiked into negative serum pool without the presence of MTX.

[5] = single dose; within 15 minutes; cited from earlier work

Molecule: COc1cc(Cc2cnc(N)nc2N)cc(OC)c1OC [Trimethoprim]
No MTX Mean (MTX antibodies [1]): 0.000 µmol/L | % Cross-reactivity (MTX antibodies [1]): 0.00%

Calibration curve separation ([3]; 0.00-0.05 μM): 21.5 mA/min | Calibration curve separation ([3]; 0.00-1.30 μM): 250.2 mA/min | Calibration curve separation ([3]; 0.05-0.15 μM): 44.9 mA/min | Calibration curve separation ([3]; 0.15-0.35 μM): 79.7 mA/min | Calibration curve separation ([3]; 0.35-0.65 μM): 61.0 mA/min | Calibration curve separation ([3]; 0.65-1.30 μM): 43.1 mA/min | Calibrator rate ([3]; Calibrator Conc. 0.00 μM): 358.5 mA/min | Calibrator rate ([3]; Calibrator Conc. 0.05 μM): 380.0 mA/min | Calibrator rate ([3]; Calibrator Conc. 0.15 μM): 424.8 mA/min | Calibrator rate ([3]; Calibrator Conc. 0.35 μM): 504.6 mA/min | Calibrator rate ([3]; Calibrator Conc. 0.65 μM): 565.6 mA/min | Calibrator rate ([3]; Calibrator Conc. 1.30 μM): 608.7 mA/min
Molecule: CN(Cc1cnc2nc(N)nc(N)c2n1)c1ccc(C(=O)N[C@@H](CCC(=O)O)C(=O)O)cc1 [MTX, (2S)-2-[[4-[(2,4-diaminopteridin-6-yl)methyl-methylamino]benzoyl]amino]pentanedioic acid]
MTX serum concentration reached ([2]; following a 4-hour infusion, pediatric patients with osteosarcoma): up to 3100 μmol/L | MTX serum concentration ([2]; high dose therapy for osteosarcoma): exceed 1000 μmol/L | MTX decay curve level ([2]; osteosarcoma, 72 hours): less than 0.3 μmol/L

Molecule: Nc1nc(N)c2nc(-c3ccccc3)c(N)nc2n1 [Triamterene]
No MTX Mean (MTX antibodies [1]): 0.009 µmol/L | % Cross-reactivity (MTX antibodies [1]): 0.03%

Molecule: CN(Cc1cnc2nc(N)nc(N)c2n1)c1ccc(C(=O)O)cc1 [DAMPA, 4-(((2,4-diaminopteridin-6-yl)methyl)(methyl)amino)benzoic acid]
Apparent Conc. (MTX antibodies [4]; DAMPA 0.04 μmol/L in negative serum pool): 0.023 µmol/L | % Cross-reactivity (MTX antibodies [4]; DAMPA 0.04 μmol/L): 57.50% | Apparent Conc. (MTX antibodies [4]; DAMPA 0.10 μmol/L in negative serum pool): 0.052 µmol/L | % Cross-reactivity (MTX antibodies [4]; DAMPA 0.10 μmol/L): 51.50% | Apparent Conc. (MTX antibodies [4]; DAMPA 0.50 μmol/L in negative serum pool): 0.215 µmol/L | % Cross-reactivity (MTX antibodies [4]; DAMPA 0.50 μmol/L): 42.93% | Apparent Conc. (MTX antibodies [4]; DAMPA 0.80 μmol/L in negative serum pool): 0.187 µmol/L | % Cross-reactivity (MTX antibodies [4]; DAMPA 0.80 μmol/L): 23.42% | Apparent Conc. (MTX antibodies [4]; DAMPA 1.00 μmol/L in negative serum pool): 0.188 µmol/L | % Cross-reactivity (MTX antibodies [4]; DAMPA 1.00 μmol/L): 18.80%

B1: glucarpidase: antidote that converts MTX into DAMPA and glutamate (protein, UniProt P06621 23-415, looked up)
Carboxypeptidase G2: ALAQKRDNVLFQAATDEQPAVIKTLEKLVNIETGTGDAEGIAAAGNFLEAELKNLGFTVTRSKSAGLVVGDNIVGKIKGRGGKNLLLMSHMDTVYLKGILAKAPFRVEGDKAYGPGIADDKGGNAVILHTLKLLKEYGVRDYGTITVLFNTDEEKGSFGSRDLIQEEAKLADYVLSFEPTSAGDEKLSLGTSGIAYVQVNITGKASHAGAAPELGVNALVEASDLVLRTMNIDDKAKNLRFNWTIAKAGNVSNIIPASATLNADVRYARNEDFDAAMKTLEERAQQKKLPEADVKVIVTRGRPAFNAGEGGKKLVDKAVAYYKEAGGTLGVEERTGGGTDAAYAALSGKPVIESLGLPGFGYHSDKAEYVDISAIPRRLYMAARLIMDLGAGK
reduction of plasma MTX concentrations [5]: ≥ 97%
